# Test results published in paper PMC9719540, “Synthesis of an amphiphilic vancomycin aglycone derivative inspired by polymyxins: overcoming glycopeptide resistance in Gram-positive and Gram-negative bacteria in synergy with teicoplanin in vitro” (Scientific Reports, 2022).
# “And” between values parts separate entries of the source, which are not always exact repeats. Identical values can stand only once. Counter-ions that a name gives are not always drawn. Like-named read-outs stand apart in the source and are kept apart here.
# Key:
# Caco-2 cells [1] = test: MTT cytotoxicity of combinations, checkerboard configuration; format: cell-based, human; details: teicoplanin : compound 14 32:2 µg/mL
# Protocol: (§1) Human Caco-2 intestinal epithelial cells were obtained from European Collection of Cell Cultures (ECACC, UK) and grown routinely in Dulbecco’s Minimum Essential Medium (DMEM), supplemented with 10% fetal bovine serum (FBS), 1% non-essential amino acid and 1% penicillin–streptomycin solution.
# In cell viability experiments, 1 × 10^4 hCMEC/D3 or Caco-2 cells/well were seeded on 96-weel plates. After 24 h of incubation, cells were treated with test solutions in different concentrations. The stock solution of the test molecule was dissolved in DMSO and further diluted with cell culture medium to prepare test solutions. […] The control group received culture medium. Cells were incubated with the test solutions for 72 h at 37 °C in an atmosphere of 5% CO2, and test solutions were replaced with 0.05 mg/ml 3-(4,5-dimethylthiazol-2-yl)-2,5-diphenyltetrazolium bromide (MTT) solutions prepared in PBS. […] The absorbance was measured at 570 nm against a 690 nm reference wavelength with a Thermo Fisher Multiskan Go microplate reader (Thermo Fisher, Waltham, MA, USA). Cell viability was expressed as the percentage of the untreated control and IC50 values were calculated by GraphPad Prism 7 software (GraphPad Software Inc., San Diego, CA, USA). […]
# Caco-2 cells [2] = test: MTT cytotoxicity (cell viability); format: cell-based, human
# Protocol: as §1
# (§2) In cell viability experiments, 1 × 10^4 hCMEC/D3 or Caco-2 cells/well were seeded on 96-weel plates. After 24 h of incubation, cells were treated with test solutions in different concentrations. The stock solution of the test molecule was dissolved in DMSO and further diluted with cell culture medium to prepare test solutions. […] The control group received culture medium. Cells were incubated with the test solutions for 72 h at 37 °C in an atmosphere of 5% CO2, and test solutions were replaced with 0.05 mg/ml 3-(4,5-dimethylthiazol-2-yl)-2,5-diphenyltetrazolium bromide (MTT) solutions prepared in PBS. Cells were incubated with MTT solutions for 4 h at 37 °C and the formed dark blue formazan crystals were dissolved in acidic isopropanol (isopropanol: 1.0 N hydrochloric acid = 25:1). The absorbance was measured at 570 nm against a 690 nm reference wavelength with a Thermo Fisher Multiskan Go microplate reader (Thermo Fisher, Waltham, MA, USA). Cell viability was expressed as the percentage of the untreated control and IC50 values were calculated by GraphPad Prism 7 software (GraphPad Software Inc., San Diego, CA, USA).
# hCMEC/D3 cells [3] = test: MTT cytotoxicity of combinations, checkerboard configuration; format: cell-based, human
# Protocol: (§3) The human immortalized hCMEC/D3 cells (Merck KGaA, Darmstadt, Germany, Cat. # SCC066) were cultured in EndoGRO-MV Complete Culture Media (supplemented with the components of the kit and fibroblast growth factor 2 (FGF-2) at 1 ng/mL final concentration).
# as §2, with “CA, USA). […]” for “CA, USA).”
# [4] = test system: Staphylococcus aureus MRSA ATCC 33591; test: Antibacterial activity (MIC); format: cell-based
# Protocol: (§4) The routine antibacterial evaluations were carried out as it was described in our previous publication. Antimicrobial synergy was determined by evaluating the fractional inhibitory concentration (FIC) index and was characterized by a conventional checkerboard assay. Bacteria grown to mid-logarithmic phase in MHB were pre-incubated with serially diluted concentrations of teicoplanin or vancomycin and compound 14. The sum of the FICs (ΣFIC) was calculated with the equation ΣFIC = FICA + FICB = (CA/MICA) + (CB/MICB), where MICA and MICB are the MICs of antimicrobial A and B alone, respectively, and CA and CB are the inhibitory concentrations of the drugs when combined, respectively. Synergy was defined as a ΣFICs ≤ 0.5 and additive activity was defined as a ΣFICs > 0.5 ≤ 1.0.
# [5] = test system: Enterococcus faecalis 15376 VanA; test: Antibacterial activity (MIC); format: cell-based
# Protocol: as §4
# [6] = test system: Acinetobacter baumannii ATCC BAA1605; test: Antibacterial activity (MIC); format: cell-based
# Protocol: as §4
# [7] = test system: Staphylococcus epidermidis ATCC 35984 biofilm; test: Antibacterial activity (MIC); format: cell-based
# Protocol: as §4
# [8] = test system: Staphylococcus epidermidis mecA; test: Antibacterial activity (MIC); format: cell-based
# Protocol: as §4
# [9] = test system: Pseudomonas aeruginosa ATCC 27853; test: Antibacterial activity (MIC); format: cell-based; details: ATCC27853
# Protocol: as §4
# [10] = test system: Bacillus subtilis ATCC 6633; test: Antibacterial activity (MIC); format: cell-based; details: ATCC6633
# Protocol: as §4
# [11] = test system: Staphylococcus aureus MSSA ATCC 29213; test: Antibacterial activity (MIC); format: cell-based
# Protocol: as §4
# [12] = test system: Enterococcus faecalis ATCC 51299 VanB; test: Antibacterial activity (MIC); format: cell-based
# Protocol: as §4
# [13] = test system: Escherichia coli ATCC 25218; test: Antibacterial activity (MIC); format: cell-based; details: ATCC25218
# Protocol: as §4
# [14] = test system: Enterococcus faecalis ATCC 29212; test: Antibacterial activity (MIC); format: cell-based; details: for MIC: ATCC29212
# Protocol: as §4
# [15] = test system: Klebsiella pneumoniae ST258 clone K 160/09; test: Antibacterial activity (MIC); format: cell-based
# Protocol: as §4
# [16] = test system: Acinetobacter baumannii ATCC BAA1605; test: Checkerboard assay, combined susceptibility (FIC index); format: cell-based; details: for MIC of antibiotic in comb.: antibiotic combined with 14; for MIC of antibiotic alone: checkerboard
# Protocol: (§5) To determine the activity profile of teicoplanin and vancomycin in combination with compound 14, combined susceptibility tests were perfomed against […] Gram negative strains including Escherichia coli, Pseudomonas aeruginosa, Acinetobacter baumannii and Klebsiella pneumoniae bacteria. The combined effects of compound 14 and the glycopeptide antibiotics were determined by conventional checkerboard assays (images of the chequerboard assay for synergistic combinations are shown in Supplementary Information S1).
# as §4
# [17] = test system: Pseudomonas aeruginosa ATCC 27853; test: as above; format: cell-based; details: for MIC of antibiotic in comb.: antibiotic combined with 14; for MIC of antibiotic alone: checkerboard
# Protocol: as §5, §4
# [18] = test system: Escherichia coli ATCC 25218; test: as above; format: cell-based; details: for MIC of antibiotic in comb.: antibiotic combined with 14; for MIC of antibiotic alone: checkerboard
# Protocol: as §5, §4
# [19] = test system: Klebsiella pneumoniae ST258 clone K 160/09; test: as above; format: cell-based; details: for MIC of antibiotic in comb.: antibiotic combined with 14
# Protocol: as §5, §4
# hCMEC/D3 cells [20] = test: MTT cytotoxicity (cell viability); format: cell-based, human
# Protocol: as §3, §2
# [21] = MTT cytotoxicity (cell viability); format: cell-based, human; details: human; Caco-2 cells, MTT, 72 h
# Protocol: as §1, §2
# [22] = between 0.082 and 200 µM (0.155–375.94 µg/mL)
molecule,measurement,setting,value
"CCCCCCCCCC(=O)N[C@H](CC(C)C)C(=O)N[C@H]1C(=O)N[C@@H](CC(N)=O)C(=O)N[C@H]2C(=O)N[C@H]3C(=O)N[C@H](C(=O)N[C@H](C(=O)NCCN)c4cc(OCCN)cc(OCCN)c4-c4cc3ccc4OCCN)[C@H](O)c3ccc(c(Cl)c3)Oc3cc2cc(c3OCCN)Oc2ccc(cc2Cl)[C@H]1O [Compound 14, Tetraaminoethyl N-decanoyl norvancomycin aglycone aminoethyl amide trifluoroacetate salt]",toxicity of combination,Caco-2 cells [1],not toxic
same,IC50,"Caco-2 cells [2]; MTT, 72 h",> 100 µM
same,IC50 (cytotoxicity),"Caco-2 cells [2]; MTT, 72 h",> 206.86 µg/mL
same,cell viability,"hCMEC/D3 cells [3]; teicoplanin : compound 14 2:32 µg/mL, percentage of untreated control",81.4%
same,toxicity of combination,hCMEC/D3 cells [3]; teicoplanin : compound 14 32:2 µg/mL,not toxic
same,MIC,"[4]; Staphylococcus aureus MRSA ATCC 33591, read-out: MIC",8 µg/mL
same,MIC,"[5]; Enterococcus faecalis 15376 VanA, read-out: MIC",8 µg/mL
same,times more potent than vancomycin (MIC ratio),[5]; resistant VanA E. faecalis,32 times
same,MIC,"[6]; ATCCBAA1605, Acinetobacter baumannii ATCC BAA1605, read-out: MIC",128 µg/mL
same,MIC,"[7]; ATCC35984, Staphylococcus epidermidis ATCC 35984 biofilm, read-out: MIC",4 µg/mL
same,MIC,"[8]; Staphylococcus epidermidis mecA, read-out: MIC",2 µg/mL
same,MIC,"[9]; Pseudomonas aeruginosa ATCC 27853, read-out: MIC",128 µg/mL
same,MIC,"[10]; Bacillus subtilis ATCC 6633, read-out: MIC",4 µg/mL
same,MIC,"[11]; Staphylococcus aureus MSSA ATCC 29213, read-out: MIC",8 µg/mL
same,MIC,"[12]; ATCC51299, Enterococcus faecalis ATCC 51299 VanB, read-out: MIC",32 µg/mL
same,MIC,"[13]; Escherichia coli ATCC 25218, read-out: MIC",128 µg/mL
same,MIC,"[14]; Enterococcus faecalis ATCC 29212, read-out: MIC",16 µg/mL
same,times less active than vancomycin (MIC ratio),[14]; vancomycin sensitive E. faecalis ATCC 29212,16 times
same,MIC,"[15]; Klebsiella pneumoniae ST258 clone K 160/09, read-out: MIC",256 µg/mL
same,FIC index,[16]; 14 combined with teicoplanin,0.2656
same,FIC index,[16]; 14 combined with vancomycin,0.75
same,MIC,"[16]; ATCCBAA1605, checkerboard, read-out: MIC of 14 alone",128 µg/mL
same,MIC of 14 in comb.,[16]; combined with teicoplanin,2 µg/mL
same,MIC of 14 in comb.,[16]; combined with vancomycin,32 µg/mL
same,FIC index,[17]; 14 combined with teicoplanin,0.375
same,FIC index,[17]; 14 combined with vancomycin,0.5625
same,MIC,"[17]; ATCC27853, checkerboard, read-out: MIC of 14 alone",256 µg/mL
same,MIC of 14 in comb.,[17]; combined with teicoplanin,32 µg/mL
same,MIC of 14 in comb.,[17]; combined with vancomycin,64 µg/mL
same,FIC index,[18]; 14 combined with teicoplanin,0.2578
same,FIC index,[18]; 14 combined with vancomycin,0.5078
same,MIC,"[18]; ATCC25218, checkerboard, read-out: MIC of 14 alone",256 µg/mL
same,MIC of 14 in comb.,[18]; combined with teicoplanin,32 µg/mL
same,MIC of 14 in comb.,[18]; combined with vancomycin,64 µg/mL
same,Combined effect,[19]; 14 combined with teicoplanin,neither synergy nor additive activity and None
same,Combined effect,[19]; 14 combined with vancomycin,neither synergy nor additive activity and None
same,MIC,"[19]; checkerboard, read-out: MIC of 14 alone",256 µg/mL
same,MIC of 14 in comb.,[19]; combined with teicoplanin,256 µg/mL
same,MIC of 14 in comb.,[19]; combined with vancomycin,256 µg/mL
same,IC50,"hCMEC/D3 cells [20]; MTT, 72 h",56.2 ± 7.74 µM
same,IC50 (cytotoxicity),"hCMEC/D3 cells [20]; MTT, 72 h",116.29 ± 16 µg/mL
CN[C@H](CC(C)C)C(=O)N[C@H]1C(=O)N[C@@H](CC(N)=O)C(=O)N[C@H]2C(=O)N[C@H]3C(=O)N[C@H](C(=O)N[C@H](C(=O)O)c4cc(O)cc(O)c4-c4cc3ccc4O)[C@H](O)c3ccc(c(Cl)c3)Oc3cc2cc(c3O[C@@H]2O[C@H](CO)[C@@H](O)[C@H](O)[C@H]2O[C@H]2C[C@](C)(N)[C@H](O)[C@H](C)O2)Oc2ccc(cc2Cl)[C@H]1O [Vancomycin],IC50 at 72 h,[21],54.2 µM and 78.7 µg/mL
same,MIC,[4]; Staphylococcus aureus,0.5 µg/mL
same,MIC,"[5]; Enterococcus faecalis, 15376VANA",256 µg/mL
same,MIC,"[6]; Acinetobacter baumannii, ATCCBAA1605",128 µg/mL
same,MIC,"[7]; Staphylococcus epidermidis, ATCC35984",2 µg/mL
same,MIC,[8]; Staphylococcus epidermidis,4 µg/mL
same,MIC,[9]; Pseudomonas aeruginosa,256 µg/mL
same,MIC,[10]; Bacillus subtilis,0.5 µg/mL
same,MIC,[11]; Staphylococcus aureus,0.5 µg/mL
same,MIC,"[12]; Enterococcus faecalis, ATCC51299",128 µg/mL
same,MIC,[13]; Escherichia coli,256 µg/mL
same,MIC,[14]; Enterococcus faecalis,1 µg/mL
same,MIC,[15]; Klebsiella pneumoniae,256 µg/mL
same,MIC of antibiotic in comb.,[16],64 µg/mL
same,MIC of antibiotic alone,[16],128 µg/mL
same,MIC of antibiotic in comb.,[17],16 µg/mL
same,MIC of antibiotic alone,[17],256 µg/mL
same,MIC of antibiotic in comb.,[18],2 µg/mL
same,MIC of antibiotic alone,[18],256 µg/mL
same,MIC of antibiotic in comb.,[19],256 µg/mL
same,MIC of antibiotic alone,[19]; checkerboard,256 µg/mL
Teicoplanin,cytotoxic effect,Caco-2 cells [2]; [22],did not show cytotoxic effect
same,MIC,[4]; Staphylococcus aureus MRSA ATCC 33591,0.5 µg/mL
same,MIC,[5]; Enterococcus faecalis 15376 VanA,256 µg/mL
same,MIC,[6]; Acinetobacter baumannii ATCC BAA1605,128 µg/mL
same,MIC,[7]; Staphylococcus epidermidis ATCC 35984 biofilm,4 µg/mL
same,MIC,[8]; Staphylococcus epidermidis mecA,16 µg/mL
same,MIC,[9]; Pseudomonas aeruginosa,256 µg/mL
same,MIC,[10]; Bacillus subtilis,0.5 µg/mL
same,MIC,[11]; Staphylococcus aureus MSSA ATCC 29213,0.5 µg/mL
same,MIC,[12]; Enterococcus faecalis ATCC 51299 VanB,0.5 µg/mL
same,MIC,[13]; Escherichia coli,256 µg/mL
same,MIC,[14]; Enterococcus faecalis,1 µg/mL
same,MIC,[15]; Klebsiella pneumoniae ST258 clone K 160/09,256 µg/mL
same,MIC of antibiotic in comb.,[16],32 µg/mL
same,MIC of antibiotic alone,[16],128 µg/mL
same,MIC of antibiotic in comb.,[17],32 µg/mL
same,MIC of antibiotic alone,[17],256 µg/mL
same,MIC of antibiotic in comb.,[18],2 µg/mL
same,MIC of antibiotic alone,[18],256 µg/mL
same,MIC of antibiotic in comb.,[19],256 µg/mL
same,MIC of antibiotic alone,[19]; checkerboard,256 µg/mL
same,cytotoxic effect,hCMEC/D3 cells [20]; [22],did not show cytotoxic effect
